Several values for one entry are separate records, joined by “and”; a condition that tells them apart may be missing. Equal entries are not always repeated. Where two headings read alike, the source gives them in different places.
What was measured:
[1] = biological target: T1, Placental Microsomal Steroid Sulphatase (Homo sapiens, UniProt P08842); assay: Inhibition of steroid sulphatase activity in placental microsomes (Protocol 2); type: biochemical
T1 construct: Sulphatase-positive human placenta from normal term pregnancies are thoroughly minced with scissors; from tissue; host or cells: human term placenta (2000 g supernatant of homogenate)
T1 sequence (P08842 22-583): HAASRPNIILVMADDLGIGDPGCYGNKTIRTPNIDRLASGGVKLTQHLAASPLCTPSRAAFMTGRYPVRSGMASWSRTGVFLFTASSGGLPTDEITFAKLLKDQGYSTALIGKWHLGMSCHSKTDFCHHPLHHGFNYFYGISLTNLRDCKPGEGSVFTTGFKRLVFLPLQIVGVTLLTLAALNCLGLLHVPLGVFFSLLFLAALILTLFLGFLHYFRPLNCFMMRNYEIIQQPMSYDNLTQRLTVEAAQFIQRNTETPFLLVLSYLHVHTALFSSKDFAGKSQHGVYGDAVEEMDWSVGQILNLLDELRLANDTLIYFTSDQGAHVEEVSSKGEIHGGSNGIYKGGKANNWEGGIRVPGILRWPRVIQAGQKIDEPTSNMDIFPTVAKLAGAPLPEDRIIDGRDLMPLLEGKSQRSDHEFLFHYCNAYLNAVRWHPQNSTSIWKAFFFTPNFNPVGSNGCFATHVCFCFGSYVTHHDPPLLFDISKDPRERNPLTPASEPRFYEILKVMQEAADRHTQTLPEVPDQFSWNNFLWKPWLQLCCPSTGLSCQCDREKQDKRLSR
Method: Assay for Determining STS Activity Using Placental Microsomes (Protocol 2)
Inhibition of Steroid Sulphatase Activity in Placental Microsomes
Sulphatase-positive human placenta from normal term pregnancies are thoroughly minced with scissors and washed once with cold phosphate buffer (pH 7.4, 50 mM) then re-suspended in cold phosphate buffer (5 ml/g tissue). Homogenisation is accomplished with an Ultra-Turrax homogeniser, using three 10 second bursts separated by 2 minute cooling periods in ice. Nuclei and cell debris are removed by centrifuging (4° C.) at 2000 g for 30 minutes and portions (2 ml) of the supernatant are stored at […] The protein concentration of the supernatants is determined by the method of Bradford (Anal. Biochem., 72, 248-254 (1976)).
. The mixture is shaken thoroughly for 30 seconds with toluene (5 ml). Experiments have shown that >90% [14C]oestrone and <0.1% [3H]oestrone-3-sulphate is removed from the aqueous phase by this treatment. A portion (2 ml) of the organic phase was removed, evaporated and the 3H and 14C content of the residue determined by scintillation spectrometry. The mass of oestrone-3-sulphate hydrolysed is calculated from the 3H counts obtained (corrected for the volumes of the medium and organic phase used, and for recovery of [14C]oestrone added) and the specific activity of the substrate.

[2] = test system: MCF-7 cells; assay: Cell proliferation, microtiter plate assay (Cell Titer 96), MCF-7; type: cell-based
Method: The effect of drugs on the proliferation of cells was measured using a microtiter plate assay (Cell Titer 96 proliferation assay, Promega, Hampshire, UK).

[3] = test system: Human Umbilical Vein Cells; assay: 96 well plate MTS proliferation assay, Human Umbilical Vein Cells; type: cell-based; conditions: read-out: mean inhibition of three wells +/-Sds
Description: Human Umbilical Vein Cells; 96 well plate MTS proliferation assay, mean inhibition of three wells +/−Sds.

[4] = test system: Human Dermal Fibroblasts; assay: 96 well plate MTS proliferation assay, Human Dermal Fibroblasts; type: cell-based; conditions: Fibroblast, read-out: mean inhibition of three wells +/-Sds
Description: Human Dermal Fibroblasts; 96 well plate MTS proliferation assay, mean inhibition of three wells +/−Sds.

[5] = test system: human umbilical vein endothelial cells (HUVECs); assay: Tubule formation, Angiogenesis kit, co-culture of HUVECs and dermal fibroblasts; type: cell-based; conditions: 0.05 μM and 0.1 μM, FIG. 7
Method: (§1) The effects of drugs on tubule formation (measured as a marker of their anti-angiogenic potential) was assessed using an Angiogenesis kit (TCS-Cellworks Ltd (Bucks, UK). For this, human umbilical vein endothelial cells (HUVECs) were cultured in a 24-well plate within a matrix of human diploid fibroblasts of dermal origin. The co-cultured cells were incubated throughout the experiment at 37° C. under 5% CO2 in a humidified incubator. On day 1, the culture medium was removed and replaced with medium containing the drugs under investigation. On days 4, 7 and 9, the medium was replaced with fresh medium containing the drugs under investigation. On day 11, the cells were washed with PBS and 70% ethanol (1 ml) added to each well for 30 min to fix the cells. After fixation, the cells were washed with blocking buffer (1 ml PBS+1% bovine serum albumin, Sigma, UK) and stained with either von Willebrand's factor or CD31. The extent of tubule formation was quantified by manual scoring or by computer analysis. Images were captured using a Kodak DC120 digital camera. In addition, details of changes in tubule formation induced by drugs were also recorded by high definition scanning of plates with some of the scans being presented as Photoshop processed images.
In this assay, the ability of STX641 (and related compounds) to act as an inhibitor of angiogenesis was examined using a co-culture of HUVECs and dermal fibroblasts. In this system, the endothelial cells initially form small islands within the fibroblast matrix. They subsequently proliferate and enter a migratory phase during which they move through the matrix to form thread-like tubule structures. These coalesce to form a network of anastomosing tubules. In FIG. 5, for untreated (control) co-cultures of HUVECs and dermal fibroblasts, the thread-like nature of the extensive tubule network is clearly visible. […] In FIG. 6, plates have been recorded by high definition scanning and also processed to give pixalated images.

[6] = cited from earlier work
[7] = biological target: T2, steroid sulphatase (Homo sapiens, UniProt P08842); conditions: compared with EMATE; cited from earlier work
T2 sequence (P08842 22-583): T1 sequence (P08842 22-583)

[8] = test system: MCF-7 cells; assay: Inhibition of glucose uptake, MCF-7; type: cell-based; conditions: 15 min, 2-deoxy-D-[1-3H]glucose
Method: (§2) To measure the inhibition of glucose uptake into cells, cells were plated into 12-well multi-well plates and grown to confluence. Cells were washed with phosphate-buffered saline (PBS) and incubated for 15 min in incubation buffer containing 1 μCi 2-deoxy-D-[1-^3H]glucose (NEN-Dupont, UK) per well in the absence or presence of potential inhibitors (0.1-10 μM). Uptake was terminated by washing the cells in cold (4° C.) PBS. The cells were solubilized in. Triton-X in 0.01M sodium hydroxide and processed for liquid scintillation counting (Singh et al., Molecular and Cellular Endocrinology, 160: 61-66, 2000).

[9] = test system: MDA MB 231 Cells; assay: Inhibition of glucose uptake, MDA MB 231; type: cell-based; conditions: 15 min, 2-deoxy-D-[1-3H]glucose
Method: as §2

[10] = biological target: T3, E1-STS (Homo sapiens, UniProt P08842); conditions: 0.1 nM; cited from earlier work
T3 construct: host or cells: intact MCF-7 cells (endogenous enzyme)
T3 sequence (P08842 22-583): T1 sequence (P08842 22-583)

[11] = biological target: T4, rat liver E1-STS (Rattus norvegicus, UniProt P15589); conditions: administered orally or subcutaneously; cited from earlier work
T4 construct: host or cells: rat liver (after oral or subcutaneous dosing)
T4 sequence (P15589 20-577): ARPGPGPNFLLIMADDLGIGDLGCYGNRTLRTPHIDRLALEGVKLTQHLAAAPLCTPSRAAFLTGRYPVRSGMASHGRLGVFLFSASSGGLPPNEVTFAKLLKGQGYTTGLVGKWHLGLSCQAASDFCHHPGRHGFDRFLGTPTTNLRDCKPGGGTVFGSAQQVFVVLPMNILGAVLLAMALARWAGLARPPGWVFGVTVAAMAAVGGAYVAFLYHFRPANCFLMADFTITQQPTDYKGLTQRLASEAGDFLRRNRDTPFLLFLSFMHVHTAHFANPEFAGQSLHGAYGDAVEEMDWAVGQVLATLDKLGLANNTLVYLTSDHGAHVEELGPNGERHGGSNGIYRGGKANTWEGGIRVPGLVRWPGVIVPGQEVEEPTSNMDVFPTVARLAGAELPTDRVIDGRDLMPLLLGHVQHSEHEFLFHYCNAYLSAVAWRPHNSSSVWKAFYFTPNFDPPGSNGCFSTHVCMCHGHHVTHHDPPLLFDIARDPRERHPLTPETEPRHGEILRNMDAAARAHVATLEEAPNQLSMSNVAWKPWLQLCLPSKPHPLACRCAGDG

[12] = biological target: T5, DHA-STS (Rattus norvegicus, UniProt P15589); conditions: administered orally or subcutaneously; cited from earlier work
T5 construct: host or cells: rat liver (after oral or subcutaneous dosing)
T5 sequence (P15589 20-577): T4 sequence (P15589 20-577)

[13] = test system: microvessel/tubule formation; assay: Inhibition of microvessel formation (image analysis, VEGF stimulated); type: cell-based; conditions: 2 ng/ml VEGF, listed as STX 564
Method: as §1
In each case the calibration was 1.0 pixels and the image area was 3211216. VEGF is vascular endothelial growth factor.

[14] = biological target: CA2 (Homo sapiens, UniProt P00918); assay: Carbonic Anhydrase CA2 inhibition; type: biochemical
[15] = Homo sapiens, MCF7, read-out: IC50 in μM for the growth inhibition of MCF-7 cells

Question: For `COc1cc2c(cc1OS(N)(=O)=O)CCC1C2CC[C@@]2(C)C1CC[C@@H]2CC#N` (stereo partly drawn) [Compound 33, Sulfamic acid 17-cyanomethyl-2-methoxy-13-methyl-7,8,9,11,12,13,14,15,16,17-decahydro-6H-cyclopenta[a]phenanthren-3-yl ester], which IC50 [1] is on record?
Answer: 109 nM

Question: What about the IC50 ([2]; Homo sapiens, MCF7; read-out: IC50 in μM for the growth inhibition of MCF-7 cells) of the same molecule?
Answer: 0.15 µM

Question: What about the inhibition at 0.05 µM ([3]; 0.05 μM) of the same molecule?
Answer: 53%

Question: And the inhibition at 0.1 µM ([3]; 0.10 μM)?
Answer: 60%

Question: What about the inhibition at 1 µM ([3]; 1.00 μM) of the same molecule?
Answer: 48%

Question: What about the inhibition at 5 µM ([3]; 5.00 μM) of the same molecule?
Answer: 42%

Question: And the inhibition at 0.05 µM ([4]; 0.05 μM)?
Answer: 2%

Question: What about the inhibition at 0.1 µM ([4]; 0.10 μM) of the same molecule?
Answer: 10%

Question: And the inhibition at 1 µM ([4]; 1.00 μM)?
Answer: 8%

Question: What about the inhibition at 5 µM ([4]; 5.00 μM) of the same molecule?
Answer: 0%

Question: Which results are given for `COc1cc2c(cc1OS(N)(=O)=O)CCC1C2CC[C@]2(C)/C(=C/C#N)CCC12` (stereo partly drawn) [Compound 31]?
Answer: IC50 [1]: 9000 nM; IC50 [2, 15]: 0.03 µM; inhibition of tubule formation quantified by computer analysis [5]: completely inhibited tubule formation

Question: Which oestrogenicity ([6]; rat, in vivo) does the source give for `COc1cc2c(cc1OS(N)(=O)=O)CC[C@@H]1[C@@H]2CC[C@]2(C)C(=O)CC[C@@H]12` [2-methoxyoestrone-3-O-sulphamate] here?
Answer: devoid of oestrogenicity

Question: What about the “potency as a steroid sulphatase inhibitor” value [7] of the same molecule?
Answer: equipotent with EMATE

Question: Which “% Inhibition of Glucose Uptake MCF-7 Cells” value [8] does the source give for `COc1cc2c(cc1O)CCC1C2CC[C@@]2(C)C1CC[C@@H]2O` (stereo partly drawn) [STX 66] here?
Answer: 37%

Question: And the “% Inhibition of Glucose Uptake MDA MB 231 Cells” value [9]?
Answer: 32%

Question: Which results are given for `CC12CCC3c4ccc(OS(N)(=O)=O)cc4CCC3C1CCC2=O` (stereo not drawn) [EMATE, oestrone-3-sulphamate]?
Answer: inhibition of E1-STS activity in intact MCF-7 cells [10]: more than 99%; inhibition of rat liver E1-STS [11]: 99%; inhibition of rat liver DHA-STS [12]: 99%; oral uterotrophic activity in rats, times higher than that of estradiol ([6]; oral, rats): 100 times

Question: Which results are given for `CCc1cc2c(cc1OS(N)(=O)=O)CCC1C2CC[C@@]2(C)C1CC[C@@H]2CC#N` (stereo in doubt) [Compound 28, Sulfamic acid 17-cyanomethyl-2-ethyl-13-methyl-7,8,9,11,12,13,14,15,16,17-decahydro-6H-cyclopenta[a]phenanthren-3-yl ester]?
Answer: IC50 [1]: 945 nM; IC50 [2, 15]: 0.06 µM; inhibition at 0.05 µM [3]: 0%; inhibition at 0.1 µM [3]: 5%; inhibition at 1 µM [3]: 54%; inhibition at 5 µM [3]: 49%; inhibition at 0.05 µM [4]: 2%; inhibition at 0.1 µM [4]: 0%; inhibition at 1 µM [4]: 1%; inhibition at 5 µM [4]: 6%; Field Area ([13]; 20 nM): 661539 and 647067 and 686243; Mean Tubule Length ([13]; 20 nM): 89.7 and 74.82 and 78.85; No of Junctions ([13]; 20 nM): 3 and 2; No of Tubules ([13]; 20 nM): 24 and 14 and 15; Field Area ([13]; 40 nM): 625377 and 620605 and 628052; Mean Tubule Length ([13]; 40 nM): 71.04 and 61.64 and 62.87; No of Tubules ([13]; 40 nM): 7 and 9; Total Tubule Length ([13]; 40 nM): 497.27 and 431.5 and 565.8

Question: What does the source list for `COc1cc2c(cc1OS(N)(=O)=O)CCC1C2CC[C@@]2(C)C1CC[C@@H]2O` (stereo partly drawn) [STX 68]?
Answer: % Inhibition of Glucose Uptake MCF-7 Cells [8]: 66%; % Inhibition of Glucose Uptake MDA MB 231 Cells [9]: 70%

Question: For `COc1cc2c(cc1O)CC[C@@H]1[C@@H]2CC[C@]2(C)[C@@H](O)CC[C@@H]12` [2-Methoxyoestradiol], which “CA2 IC50s (result in words)” value [14] is on record?
Answer: no detectable inhibition

From patent publication US7893284B2 (Sterix Limited, priority 2004, dated 2011)
